The term Kd denotes the concentration at which binding is half-saturated. Broadly, the IC50 is the concentration that gives 50% inhibition. As usually defined, the inhibition is the change of the read-out against control, counted positive when it falls.

One data set concerns the target Albumin (Bos taurus, UniProt P02769). In words: Binding affinity to bovine serum albumin. It counts as ADME.
Data set [1] deals with HeLa. Description: Antiproliferative activity against human HeLa cells assessed as reduction in cell growth incubated for 72 hrs by MTT assay. In kind it is functional, cell-based. In general terms: Tetrazolium dyes change colour on reduction, which living cells bring about.
A short description of data set [2]: Stability in 25% human serum assessed as intact parent compound level at 5 uM after 6 hrs incubated at 37 degC by reversed-phase HPLC method. In kind it is ADME, cell-free. The settings on record: read-out: Stability.
In data set [3] the test system is HeLa. In words: Growth inhibition of human HeLa cells at 5 uM incubated for 3 days by MTT assay. In kind it is functional.
In data set [4] the target is T1, Peptidyl-prolyl cis-trans isomerase NIMA-interacting 4 (Homo sapiens, UniProt Q9Y237). In words: Inhibition of Pin4 (unknown origin) pre-incubated for 10 mins before addition of Suc-Ala-Glu-Pro-Phe-pNA substrate in presence of alpha-chymotrypsin by UV/Vis spectrophotometry.
The target in data set [5] is T2, Peptidyl-prolyl cis-trans isomerase NIMA-interacting 1 (Homo sapiens, UniProt Q13526, S16A/Y23A). In words: (§1) Inhibition of FITC-labeled peptide-1 binding to N-terminal MBP fused and Texas-red-labeled full-length human Pin1 S16A/Y23A mutant expressed in Escherichia coli assessed as increase in fluorescence anisotropy by spectrofluorimetry. Background: Fluorescence polarisation rises when a labelled molecule tumbles more slowly, as on binding a larger partner.

For data set [6], the system named is Peptidyl-prolyl cis-trans isomerase NIMA-interacting 1 (Homo sapiens), Q13526 [S16A,Y23A]. The data set is described as §1.
Another data set has as its system FKBP1A. Description: Inhibition of FKBP12 (unknown origin) up to 5 uM pre-incubated for 10 mins before addition of Suc-Ala-Glu-Pro-Phe-pNA substrate in presence of alpha-chymotrypsin by UV/Vis spectrophotometry. Particulars: Homo sapiens.
The target in data set [7] is Peptidyl-prolyl cis-trans isomerase NIMA-interacting 1 (Homo sapiens) (UniProt Q13526). Description: Inhibition of Pin1 in human HeLa cells assessed as increase in PML protein levels at 0.2 uM incubated for 2 hrs by Western blotting method relative to untreated control. It counts as cell-based. (A western blot detects proteins with antibodies after separation by electrophoresis.)

The target of data set [8] is T2, Peptidyl-prolyl cis-trans isomerase NIMA-interacting 1. In words: Binding affinity to N-terminal MBP fused and Texas-red-labeled full-length human Pin1 S16A/Y23A mutant expressed in Escherichia coli assessed as increase in fluorescence anisotropy by spectrofluorimetry.
Data set [9] concerns the target T3, Tyrosine-protein phosphatase non-receptor type 1 (Homo sapiens) (UniProt P18031).
T3 sequence (whole entry): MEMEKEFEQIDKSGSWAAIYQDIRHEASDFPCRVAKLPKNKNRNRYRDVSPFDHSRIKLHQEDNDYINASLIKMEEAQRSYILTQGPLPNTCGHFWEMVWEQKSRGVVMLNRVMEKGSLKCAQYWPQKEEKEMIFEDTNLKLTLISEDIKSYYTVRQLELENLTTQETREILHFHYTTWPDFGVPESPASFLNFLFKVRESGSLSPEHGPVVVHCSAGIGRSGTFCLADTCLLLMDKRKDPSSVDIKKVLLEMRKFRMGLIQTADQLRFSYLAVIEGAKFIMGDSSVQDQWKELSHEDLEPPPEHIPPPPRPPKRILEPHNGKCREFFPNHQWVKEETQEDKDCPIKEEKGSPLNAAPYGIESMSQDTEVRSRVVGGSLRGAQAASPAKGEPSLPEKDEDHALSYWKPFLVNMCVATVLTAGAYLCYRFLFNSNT
In words: Binding affinity to PTP1B (unknown origin).

The target in data set [10] is Growth factor receptor-bound protein 2 (Homo sapiens) (UniProt P62993). In words: Binding affinity to Grb2 SH2 domain (unknown origin).
Data set [11] deals with T4, Tyrosine-protein phosphatase non-receptor type 11 (Homo sapiens) (UniProt Q06124).
T4 sequence (whole entry): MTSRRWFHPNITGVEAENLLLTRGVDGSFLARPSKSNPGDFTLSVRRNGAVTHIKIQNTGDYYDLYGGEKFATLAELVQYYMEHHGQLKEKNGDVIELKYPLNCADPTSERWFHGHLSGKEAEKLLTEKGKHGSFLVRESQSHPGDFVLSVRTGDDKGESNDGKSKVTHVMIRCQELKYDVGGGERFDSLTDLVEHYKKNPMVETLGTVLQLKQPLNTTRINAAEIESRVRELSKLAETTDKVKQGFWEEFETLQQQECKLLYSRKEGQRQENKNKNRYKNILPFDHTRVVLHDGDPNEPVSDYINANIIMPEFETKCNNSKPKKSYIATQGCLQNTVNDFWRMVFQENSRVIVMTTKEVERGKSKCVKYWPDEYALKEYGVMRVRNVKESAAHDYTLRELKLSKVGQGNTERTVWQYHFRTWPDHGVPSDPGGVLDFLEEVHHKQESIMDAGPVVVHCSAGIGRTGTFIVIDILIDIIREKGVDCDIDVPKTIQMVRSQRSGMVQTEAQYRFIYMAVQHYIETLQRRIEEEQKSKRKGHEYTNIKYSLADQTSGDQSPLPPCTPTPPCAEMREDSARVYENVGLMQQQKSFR
Description: Binding affinity to SHP2 (unknown origin).

Data set [12] concerns the target T2, Peptidyl-prolyl cis-trans isomerase NIMA-interacting 1. In words: (§2) Inhibition of N-terminal MBP fused and Texas-red-labeled full-length human Pin1 S16A/Y23A mutant expressed in Escherichia coli pre-incubated for 10 mins before addition of Suc-Ala-Glu-Pro-Phe-pNA substrate in presence of alpha-chymotrypsin by UV/Vis spectrophotometry.
Data set [13] concerns Peptidyl-prolyl cis-trans isomerase NIMA-interacting 1 (Homo sapiens), Q13526 [S16A,Y23A]. Described as §2.
Data set [14] has as its system HeLa. Description: Drug uptake in human HeLa cells assessed as mean fluorescence intensity at 5 uM using FITC-labeled compound incubated for 2 hrs by flow cytometry (reference value: 86). It counts as ADME, cell-based.
Data set [15] addresses Tyrosine-protein phosphatase non-receptor type 6 (Homo sapiens) (UniProt P29350). Description: Binding affinity to SHP1 (unknown origin).
Data set [16] deals with T1, Peptidyl-prolyl cis-trans isomerase NIMA-interacting 4. Description: Inhibition of Pin4 (unknown origin) at 5 uM pre-incubated for 10 mins before addition of Suc-Ala-Glu-Pro-Phe-pNA substrate in presence of alpha-chymotrypsin by UV/Vis spectrophotometry.
Data set [17] has as its target Peptidyl-prolyl cis-trans isomerase A (Homo sapiens) (UniProt P62937). Description: Inhibition of cyclophilin A (unknown origin) up to 5 uM pre-incubated for 10 mins before addition of Suc-Ala-Glu-Pro-Phe-pNA substrate in presence of alpha-chymotrypsin by UV/Vis spectrophotometry.
For data set [18], the target named is GTPase KRas (Homo sapiens) (UniProt P01116). Description: Binding affinity to K-Ras (unknown origin).
Data set [19] has as its target Peptidyl-prolyl cis-trans isomerase NIMA-interacting 1 (Homo sapiens) (UniProt Q13526). Description: Inhibition of Pin1 in human HeLa cells assessed as increase in PML protein levels at 1 uM incubated for 2 hrs by Western blotting method relative to untreated control. It counts as cell-based.
Data set [20] addresses Tumor necrosis factor (Homo sapiens) (UniProt P01375). Description: Binding affinity to TNFalpha (unknown origin).
Data set [21] deals with Peptidyl-prolyl cis-trans isomerase NIMA-interacting 1 (Homo sapiens) (UniProt Q13526). Description: Inhibition of Pin1 in human HeLa cells assessed as increase in PML protein levels at 0.2 to 5 uM incubated for 2 hrs by Western blotting method relative to untreated control. It counts as cell-based.
Data set [22] can be described thus: Stability in 25% human serum assessed as compound degradation at 5 uM after 3 hrs incubated at 37 degC by reversed-phase HPLC method. In kind it is ADME, cell-free. Particulars: read-out: Drug degradation.
The test system of data set [23] is Serum. Description: Drug metabolism in 25% human serum assessed as compound 2 formation at 5 uM incubated at 37 degC by MALDI-TOF mass spectrometry. It counts as ADME, cell-free.
The subject of data set [24] is Serum. In words: Drug level in 25% human serum treated with at 5 uM peptide-1 assessed as compound formation incubated at 37 degC by MALDI-TOF mass spectrometry. It counts as ADME, cell-free.
Setting [25] is: Homo sapiens, HeLa, 72 h, read-out: IC50.

Active and inactive are the calls of the source. The rule behind the calls is not given here.

T1 sequence (Q9Y237 whole entry, the tested form may be a part): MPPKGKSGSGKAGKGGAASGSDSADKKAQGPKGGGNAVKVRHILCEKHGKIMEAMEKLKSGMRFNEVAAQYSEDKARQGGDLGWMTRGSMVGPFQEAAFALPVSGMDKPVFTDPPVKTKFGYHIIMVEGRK
Tyrosine-protein phosphatase non-receptor type 6 (Homo sapiens), sequence (P29350 whole entry): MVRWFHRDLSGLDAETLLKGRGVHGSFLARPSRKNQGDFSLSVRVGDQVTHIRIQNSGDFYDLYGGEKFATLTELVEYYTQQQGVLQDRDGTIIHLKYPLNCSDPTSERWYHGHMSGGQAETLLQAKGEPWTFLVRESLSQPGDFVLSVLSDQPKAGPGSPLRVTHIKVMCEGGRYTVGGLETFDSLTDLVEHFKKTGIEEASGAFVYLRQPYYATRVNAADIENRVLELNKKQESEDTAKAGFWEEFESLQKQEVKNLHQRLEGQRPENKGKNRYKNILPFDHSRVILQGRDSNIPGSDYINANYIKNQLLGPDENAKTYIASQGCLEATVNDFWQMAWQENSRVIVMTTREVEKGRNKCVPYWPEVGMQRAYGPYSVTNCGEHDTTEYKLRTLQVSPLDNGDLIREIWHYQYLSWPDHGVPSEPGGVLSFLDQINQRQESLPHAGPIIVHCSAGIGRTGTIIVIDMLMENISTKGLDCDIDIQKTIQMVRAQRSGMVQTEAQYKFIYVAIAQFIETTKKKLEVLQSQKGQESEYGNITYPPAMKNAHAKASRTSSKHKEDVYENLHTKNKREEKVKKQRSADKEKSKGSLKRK
GTPase KRas (Homo sapiens), sequence (P01116 whole entry, looked up): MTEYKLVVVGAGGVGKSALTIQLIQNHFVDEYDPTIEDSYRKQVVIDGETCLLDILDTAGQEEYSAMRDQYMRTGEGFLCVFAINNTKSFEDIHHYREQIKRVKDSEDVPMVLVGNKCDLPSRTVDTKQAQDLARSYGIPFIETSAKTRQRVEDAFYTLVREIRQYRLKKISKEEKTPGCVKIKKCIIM
Growth factor receptor-bound protein 2 (Homo sapiens), sequence (P62993 whole entry, looked up, the tested form may be a part): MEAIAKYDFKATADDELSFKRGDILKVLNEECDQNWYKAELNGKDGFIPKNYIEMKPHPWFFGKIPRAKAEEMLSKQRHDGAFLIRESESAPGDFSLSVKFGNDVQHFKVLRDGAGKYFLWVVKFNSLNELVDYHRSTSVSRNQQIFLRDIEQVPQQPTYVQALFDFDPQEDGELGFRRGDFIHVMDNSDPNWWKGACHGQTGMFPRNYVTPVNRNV
Peptidyl-prolyl cis-trans isomerase A (Homo sapiens), sequence (P62937 whole entry, looked up): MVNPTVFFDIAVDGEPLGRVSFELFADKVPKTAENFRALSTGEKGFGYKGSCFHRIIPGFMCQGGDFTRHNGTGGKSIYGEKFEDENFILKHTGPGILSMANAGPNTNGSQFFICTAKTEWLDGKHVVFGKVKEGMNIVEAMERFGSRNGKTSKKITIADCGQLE
Albumin, sequence (P02769 whole entry): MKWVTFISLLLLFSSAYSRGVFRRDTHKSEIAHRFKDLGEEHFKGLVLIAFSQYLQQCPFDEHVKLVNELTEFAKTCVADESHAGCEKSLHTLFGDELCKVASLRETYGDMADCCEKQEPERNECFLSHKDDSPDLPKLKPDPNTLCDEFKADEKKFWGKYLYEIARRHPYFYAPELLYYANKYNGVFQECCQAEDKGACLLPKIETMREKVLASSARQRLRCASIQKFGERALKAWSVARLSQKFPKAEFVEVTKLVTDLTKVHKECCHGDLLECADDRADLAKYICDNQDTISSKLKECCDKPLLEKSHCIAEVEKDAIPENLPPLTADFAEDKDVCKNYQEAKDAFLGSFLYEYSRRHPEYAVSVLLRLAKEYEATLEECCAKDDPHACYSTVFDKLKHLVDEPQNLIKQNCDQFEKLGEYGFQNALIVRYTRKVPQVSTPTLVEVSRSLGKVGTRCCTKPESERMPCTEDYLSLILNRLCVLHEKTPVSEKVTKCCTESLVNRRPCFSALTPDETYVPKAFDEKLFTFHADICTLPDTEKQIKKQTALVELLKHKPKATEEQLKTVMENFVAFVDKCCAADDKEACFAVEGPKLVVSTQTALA
Tumor necrosis factor (Homo sapiens), sequence (P01375 whole entry): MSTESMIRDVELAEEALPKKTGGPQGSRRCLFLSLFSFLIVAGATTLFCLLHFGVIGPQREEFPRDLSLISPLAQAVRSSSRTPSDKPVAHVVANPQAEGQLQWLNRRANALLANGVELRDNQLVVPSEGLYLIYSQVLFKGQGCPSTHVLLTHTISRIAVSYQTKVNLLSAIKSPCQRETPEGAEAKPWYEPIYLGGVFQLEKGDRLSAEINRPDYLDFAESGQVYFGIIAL

In the case of `C[C@@H]1NC(=O)[C@H](CCCNC(=N)N)NC(=O)[C@H](Cc2ccc3ccccc3c2)NC(=O)[C@H]2CCCCN2C(=O)[C@@H]([C@H](C)O)NC(=O)[C@H](Cc2ccc(F)cc2)NC(=O)[C@@H](Cc2ccc(F)cc2)NC(=O)c2cc3cc(c2)C(=O)NC[C@H](NC(=O)[C@@H](C)NC1=O)C(=O)N[C@@H](Cc1ccccc1)C(=O)N[C@@H](Cc1ccc2ccccc2c1)C(=O)N[C@@H](CCCNC(=N)N)C(=O)N[C@@H](CCCNC(=N)N)C(=O)N[C@@H](CCCNC(=N)N)C(=O)N[C@@H](CCCNC(=N)N)C(=O)N[C@H](C(=O)N[C@@H](CCCCN)C(=O)O)CNC3=O`, the Kd stood at 20000 nM on Albumin and 120 nM in data set [8] (read-out: Kd). The IC50 amounted to 1000 nM with HeLa [1] (setting [25]), 34000 nM in [4], 190 nM in data set [5] and 170 nM in data set [12]. In addition, the remaining at 6 h, 5 µM in data set [2] was 97%. For the same compound, the inhibition of growth at 5 µM with HeLa [3] (72 h, read-out: GI) was over 60%. The inhibition result in data set [6] is “Dose-dependent effect”; in [13] it was “Dose-dependent effect”; in [16], 15%. Further, the inhibition entry (in the data set with FKBP1A; in data set [17]) was “inactive” in each case. The fold change (FC) in data set [7] is 1.8; in data set [19] it was 3.3. Also, the outcome in [9], in data set [10], in [11], in [15], in data set [18] and in data set [20] was inactive. For the same compound, the Flu intensity in the data set with HeLa [14] was determined as 8320.
Regarding `C[C@@H]1NC(=O)[C@H](CCCNC(=N)N)NC(=O)[C@H](Cc2ccc3ccccc3c2)NC(=O)[C@@H](C)NC(=O)[C@@H]([C@H](C)O)NC(=O)CN(C)C(=O)[C@@H](C)NC(=O)c2cc3cc(c2)C(=O)NC[C@H](NC(=O)[C@@H](C)NC1=O)C(=O)N[C@@H](Cc1ccccc1)C(=O)N[C@@H](Cc1ccc2ccccc2c1)C(=O)N[C@@H](CCCNC(=N)N)C(=O)N[C@@H](CCCNC(=N)N)C(=O)N[C@@H](CCCNC(=N)N)C(=O)N[C@@H](CCCNC(=N)N)C(=O)N[C@H](C(=O)N[C@@H](CCCCN)C(=O)O)CNC3=O`, the IC50 result in the data set on HeLa [1] (hela) is given as “Not Active”. In the data set with HeLa [3], the “growth inhibition (GI)” value is “inactive”. Further, in [21], the inhibition result is “inactive”. In [8], the Kd result is given as “Not Active”. The Flu intensity in the data set on HeLa [14] is reported as 8730.
`C[C@@H]1NC(=O)[C@H](CCCNC(=N)N)NC(=O)[C@H](Cc2ccc3ccccc3c2)NC(=O)[C@@H]2CCCCN2C(=O)[C@@H]([C@H](C)OP(=O)(O)O)NC(=O)CN(C)C(=O)[C@@H](C)NC(=O)c2cc3cc(c2)C(=O)NC[C@H](NC(=O)[C@@H](C)NC1=O)C(=O)N[C@@H](Cc1ccccc1)C(=O)N[C@@H](Cc1ccc2ccccc2c1)C(=O)N[C@@H](CCCNC(=N)N)C(=O)N[C@@H](CCCNC(=N)N)C(=O)N[C@@H](CCCNC(=N)N)C(=O)N[C@@H](CCCNC(=N)N)C(=O)N[C@H](C(=O)N[C@@H](CCCCN)C(=O)O)CNC3=O`: in the data set on HeLa [1] (setting [25]), the IC50 is 2500 nM. Moreover, the metabolised at 3 h, 5 µM in data set [22] was 50%. Moreover, the Kd in [8] (read-out: Kd) came out at 72 nM. Also, the Flu intensity in the data set on HeLa [14] was found to be 2040. Further, the Drug metabolism result in the data set with Serum [23] is reported as “metabolite_detected”.
In the case of `C[C@@H]1NC(=O)[C@H](CCCNC(=N)N)NC(=O)[C@H](Cc2ccc3ccccc3c2)NC(=O)[C@@H]2CCCCN2C(=O)[C@@H]([C@H](C)O)NC(=O)CN(C)C(=O)[C@@H](C)NC(=O)c2cc3cc(c2)C(=O)NC[C@H](NC(=O)[C@@H](C)NC1=O)C(=O)N[C@@H](Cc1ccccc1)C(=O)N[C@@H](Cc1ccc2ccccc2c1)C(=O)N[C@@H](CCCNC(=N)N)C(=O)N[C@@H](CCCNC(=N)N)C(=O)N[C@@H](CCCNC(=N)N)C(=O)N[C@@H](CCCNC(=N)N)C(=O)N[C@H](C(=O)N[C@@H](CCCCN)C(=O)O)CNC3=O`, in the data set on Serum [24], the Drug metabolism result was “metabolite_detected”. Besides, the Kd in data set [8] (read-out: Kd) was 620 nM.
Turning to `C[C@H](OP(=O)(O)O)[C@H]1NC(=O)CN(C)C(=O)[C@@H](C)NC(=O)[C@H](CCCCN)NC(=O)[C@H](Cc2ccc(O)cc2)NC(=O)[C@H](Cc2ccc3ccccc3c2)NC(=O)[C@H]2CCCCN2C1=O`, the IC50 result in the data set with HeLa [1] (hela) is reported as “Not Active”. Moreover, the “growth inhibition (GI)” value in the data set on HeLa [3] was “inactive”. Further, the Kd in [8] (read-out: Kd) turned out to be 240 nM. Besides, the Flu intensity in the data set on HeLa [14] worked out at 193.

The values above are taken from ChEMBL document CHEMBL3588828, “A Selective, Cell-Permeable Nonphosphorylated Bicyclic Peptidyl Inhibitor against Peptidyl-Prolyl Isomerase Pin1” (J Med Chem, 2015).
